System: striatal dopamine release
Assay: Effect of TRH and tyrosine on striatal dopamine release (in vivo microdialysis)
Design: species or system rats
From the text: Groups of 7 male albino rats were implanted with a jugular venous catheter (for administering the drugs and withdrawing blood samples), and a microdialysis probe into the corpus striatum (for sampling fluid in equilibrium with intrasynaptic fluids).
Animals were placed under deep urethane anesthesia for the duration of the experiment. Each animal received 10 micrograms of TRH or a saline placebo, and/or tyrosine at a dose of 20 micrograms per kilogram, or a saline placebo.
Microdialysis samples (23 microliters of artificial cerebrospinal fluid per sample) were then collected at 15 minute intervals for 150 minutes, and rapidly assayed for dopamine, its chief metabolites (DOPAC and HVA), serotonin, and the serotonin metabolite, 5-HIAA.

| Compound | other compounds measured in microdialysate (DOPAC, HVA, serotonin, 5-HIAA) (TRH 10 micrograms alone, anesthetized rats, striatal microdialysis) | increase (from the baseline) in dopamine release (TRH 10 micrograms alone, via jugular venous catheter, urethane-anesthetized male albino rats, corpus striatum microdialysis, after two hours) [%] | effect on dopamine release (higher dose of TRH (50 micrograms) without tyrosine, anesthetized rats, striatal microdialysis) [%] | increase in dopamine release (tyrosine alone, 20 micrograms per kilogram, via jugular venous catheter, anesthetized rats, striatal microdialysis, after two hours) |
| --- | --- | --- | --- | --- |
| NC(=O)[C@@H]1CCCN1C(=O)[C@H](Cc1c[nH]cn1)NC(=O)[C@@H]1CCC(=O)N1 [TRH, L-pyroglutamyl-L-histidyl-L-prolineamide] | stable | 190 | 750 |  |
| N[C@@H](Cc1ccc(O)cc1)C(=O)O [tyrosine] |  |  |  | about 110% |

From patent US5118670A, “Process and composition for increasing brain dopamine release” (Massachusetts Institute of Technology, priority 1988, dated 1992)
